Some test systems named below: SK-MEL-28 melanoma; HOP-62 NSCLC; EKVX NSCLC; OVCAR-5 ovarian; RPMI-8226 leukemia; BT-549 breast; MDA-MB-435; A549 NSCLC; HL-60(TB) leukemia; HS 578T breast.
Common to all, as to test: growth of human tumour cells (NCI), 48 h

Where “and” joins values, the source holds several entries; their conditions need not be identical. Equal values may be shown once.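 Grown in 96-well plates, cells were treated for 48 hours with each compound at five concentrations. Insufficient inhibition: endpoint recorded as highest concentration tested. GI50: concentration for 50% inhibition of growth. TGI: total growth inhibition.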

Regarding `COc1ccc(SC2c3cc(OC)c(OC)cc3Oc3nc(N)c(C#N)c(N)c32)cc1` (stereo not drawn), the GI50 is 1.47 µM with SK-MEL-28 melanoma; 1.7 µM in the experiment on HOP-62 NSCLC; 1.74 µM with EKVX NSCLC; 1.75 µM in the experiment with OVCAR-5 ovarian; 0.354 µM with RPMI-8226 leukemia; 1.02 µM with BT-549 breast. Moreover, the GI50 in the experiment on MDA-MB-435 is 1.5 µM. In addition, the TGI in the experiment on SK-MEL-28 melanoma is 2.91 µM; in the experiment on HOP-62 NSCLC, 3.09 µM; with EKVX NSCLC it was 3.34 µM; in the experiment on OVCAR-5 ovarian it was 3.39 µM; in the experiment with RPMI-8226 leukemia it was 1.81 µM; in the experiment with BT-549 breast it was 2.19 µM. For the same compound, the TGI in the experiment on MDA-MB-435 was 2.92 µM.
Consider `Cc1cc(C)cc(-n2c3nc(=O)n(C)c(=O)c-3nc3ccccc32)c1`, for which the TGI is above 100 µM in the experiment on HOP-62 NSCLC; 70.6 µM in the experiment on A549 NSCLC; 44.7 µM in the experiment on EKVX NSCLC; 93.1 µM in the experiment on OVCAR-5 ovarian; above 100 µM in the experiment with RPMI-8226 leukemia.
With `CC1(O)C=CC2CCC1C2O` (stereo not drawn), the TGI with SK-MEL-28 melanoma was above 100 µM; in the experiment on HOP-62 NSCLC, above 100 µM; in the experiment with A549 NSCLC, above 100 µM; with EKVX NSCLC, above 100 µM; in the experiment with OVCAR-5 ovarian, above 100 µM; in the experiment with RPMI-8226 leukemia, 53.5 µM. Further, the TGI in the experiment on HL-60(TB) leukemia was above 100 µM.
As for `CCOC(=O)C(C)(C)Oc1ccc2c(=O)cc(-c3ccccc3)oc2c1`, the TGI with SK-MEL-28 melanoma is 30.7 µM; in the experiment on HOP-62 NSCLC it was 41 µM; in the experiment with A549 NSCLC, 59 µM; with EKVX NSCLC it was 84.8 µM; in the experiment on OVCAR-5 ovarian it was above 100 µM; in the experiment with RPMI-8226 leukemia, 37.8 µM. Besides, the TGI in the experiment on HL-60(TB) leukemia amounted to 32.8 µM.
In the case of `NCCCCCS(=O)(=O)O`, the TGI in the experiment with SK-MEL-28 melanoma, in the experiment on HOP-62 NSCLC, with A549 NSCLC, with EKVX NSCLC, in the experiment with OVCAR-5 ovarian and in the experiment on HL-60(TB) leukemia was above 100 µM in each case.
`CC#C[C@@]1(O)CCCC[C@@H]1O`: the TGI in the experiment with SK-MEL-28 melanoma, with HOP-62 NSCLC, in the experiment with A549 NSCLC, in the experiment on EKVX NSCLC, with RPMI-8226 leukemia and in the experiment on HL-60(TB) leukemia was above 100 µM each time.
For the compound `CCOC1OCCCC1Br` (stereo not drawn), the TGI with SK-MEL-28 melanoma, in the experiment with HOP-62 NSCLC, with A549 NSCLC, with EKVX NSCLC, in the experiment with OVCAR-5 ovarian and with RPMI-8226 leukemia was above 100 µM each time. Further, the TGI in the experiment on HS 578T breast and with MDA-MB-435 was above 100 µM in each case.
On to `O=C(c1cc(O)ccc1O)c1ccccc1C(Cl)(Cl)Cl`, for which the TGI was above 100 µM with HOP-62 NSCLC; above 100 µM in the experiment with A549 NSCLC; above 100 µM in the experiment on EKVX NSCLC; above 100 µM with OVCAR-5 ovarian; above 100 µM with RPMI-8226 leukemia; 97.3 µM in the experiment with HL-60(TB) leukemia.
Consider `O=C(N/N=C(/c1nc2ccc(Cl)cc2[nH]c1=O)C(O)c1ccc(Cl)cc1Cl)c1ccncc1` (stereo not drawn), for which the TGI in the experiment on SK-MEL-28 melanoma, with HOP-62 NSCLC, in the experiment with A549 NSCLC, in the experiment with EKVX NSCLC, in the experiment with OVCAR-5 ovarian and in the experiment on RPMI-8226 leukemia was above 100 µM in each case. Besides, the TGI with HL-60(TB) leukemia is above 100 µM.
With `COc1cc([C@@H]2c3cc4c(cc3[C@@H](NC(=O)c3ccc(N)cc3)C3COC(=O)[C@@H]32)OCO4)cc(OC)c1O` (stereo partly drawn), the TGI turned out to be 50.8 µM in the experiment on SK-MEL-28 melanoma; 3.95 µM in the experiment on HOP-62 NSCLC; 12.8 µM with A549 NSCLC; 23.7 µM in the experiment with EKVX NSCLC; 34.5 µM in the experiment on OVCAR-5 ovarian; 20.2 µM in the experiment with RPMI-8226 leukemia. Also, in the experiment with HL-60(TB) leukemia, the TGI amounted to 4.35 µM.
`COC(=O)/C=C/C(=O)C1C(C(=O)OC)C2(C(=O)OC)CCC1(C(=O)OC)N2` (stereo not drawn): the TGI with SK-MEL-28 melanoma, in the experiment with HOP-62 NSCLC, in the experiment with A549 NSCLC, in the experiment with EKVX NSCLC, in the experiment on OVCAR-5 ovarian and in the experiment on RPMI-8226 leukemia was above 100 µM in each case. The compound also gave a TGI in the experiment with HL-60(TB) leukemia above 100 µM.
As for `CCC1C(C)c2c([nH]c3ccccc23)C2C(=O)N(c3ccccc3)C(=O)C21` (stereo not drawn), the TGI in the experiment on SK-MEL-28 melanoma was 33.4 µM; in the experiment on A549 NSCLC it was 48.5 µM; in the experiment on EKVX NSCLC it was 38.3 µM; with RPMI-8226 leukemia, 40.9 µM; in the experiment with HL-60(TB) leukemia it was 33.9 µM.
For `COC(=O)C1=C(OC)c2cc3c(cc2C(c2cc(OC)c(OC)c(OC)c2)C1C(=O)OC)OCO3` (stereo not drawn), the TGI in the experiment with SK-MEL-28 melanoma, with HOP-62 NSCLC, in the experiment with A549 NSCLC, with EKVX NSCLC, with OVCAR-5 ovarian and in the experiment on RPMI-8226 leukemia was above 100 µM throughout. Besides, in the experiment on HL-60(TB) leukemia, the TGI is above 100 µM.
On to `Cc1cnc[nH]c1=O`, for which the TGI in the experiment with SK-MEL-28 melanoma, in the experiment with HOP-62 NSCLC, in the experiment on A549 NSCLC, in the experiment with EKVX NSCLC, in the experiment on OVCAR-5 ovarian and in the experiment with RPMI-8226 leukemia was above 100 µM in each case. For the same compound, the TGI in the experiment with HL-60(TB) leukemia was above 100 µM.
Turning to `C=CN1C(=O)OC(c2ccccc2)C1c1ccccc1` (stereo not drawn), the GI50 was above 100 µM with SK-MEL-28 melanoma; 52.8 µM in the experiment on HOP-62 NSCLC; above 100 µM in the experiment on A549 NSCLC; above 100 µM in the experiment with EKVX NSCLC; > 31.6 µM and 88.6 µM in the experiment with RPMI-8226 leukemia. In addition, the TGI in the experiment with SK-MEL-28 melanoma, in the experiment with HOP-62 NSCLC, in the experiment with A549 NSCLC, in the experiment with EKVX NSCLC, in the experiment on OVCAR-5 ovarian and in the experiment with RPMI-8226 leukemia was above 100 µM each time. The TGI in the experiment on HL-60(TB) leukemia is above 100 µM.
For `CCOC(=O)C1N(S(=O)(=O)c2ccc(C)cc2)CCC12c1ccccc1N(C(C)=O)C2C(/C=C/C(=O)OC)=C/C(=O)OC` (stereo not drawn), the TGI with SK-MEL-28 melanoma, with HOP-62 NSCLC, in the experiment with A549 NSCLC, with EKVX NSCLC, in the experiment with OVCAR-5 ovarian and with RPMI-8226 leukemia was above 100 µM in each case. In addition, the TGI in the experiment on HL-60(TB) leukemia was above 100 µM.
Consider `Cc1c[nH]c2c1C13CC1CN(C(=O)c1cc4cc(NC(=O)c5cc6ccccc6o5)ccc4[nH]1)C3=CC2=O` (stereo not drawn), for which the GI50 with A549 NSCLC, with OVCAR-5 ovarian, in the experiment on RPMI-8226 leukemia and with HL-60(TB) leukemia was above 1.17 ng/mL each time. The same compound yielded a TGI with OVCAR-5 ovarian below 0.001 µM.
